Tested on: 695427-040-R-J1-PDC complex spheroids, viability percent T/C
Assay: Anticancer human tumor 695427-040-R-J1-PDC patient-derived colon adenocarcinoma cell line growth inhibition [GQUAD]
Conditions: for IC50: curve of first compound; for viability, T/C: stronger effect = lower value
Outline: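 Multi-cell-type spheroids of tumor cells with HUVEC and mesenchymal stem cells, treated with drug combinations. Concentrations descend in half-log steps from near clinical Cmax, or from 10 microM where Cmax is unknown; viability read-out.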

[1] = second compound 0.0316 µM, first compound 0.0316 µM
[2] = second compound 0.0316 µM, first compound 0.316 µM
[3] = second compound 0.1 µM, first compound 0.0316 µM
[4] = second compound 0.1 µM, first compound 0.316 µM
[5] = second compound 0.316 µM, first compound 0.0316 µM
[6] = second compound 0.316 µM, first compound 0.316 µM
[7] = second compound 1 µM, first compound 0.0316 µM
[8] = second compound 1 µM, first compound 0.316 µM
[9] = second compound 3.16 µM, first compound 0.0316 µM
[10] = second compound 3.16 µM, first compound 0.316 µM
[11] = second compound 10 µM, first compound 0.0316 µM
[12] = second compound 10 µM, first compound 0.316 µM
[13] = second compound 0.0316 µM, first compound 0.1 µM
[14] = second compound 0.0316 µM, first compound 1 µM
[15] = second compound 0.0316 µM, first compound 3.16 µM
[16] = second compound 0.0316 µM, first compound 10 µM
[17] = second compound 0.1 µM, first compound 0.1 µM
[18] = second compound 0.1 µM, first compound 1 µM
[19] = second compound 0.1 µM, first compound 3.16 µM
[20] = second compound 0.1 µM, first compound 10 µM
[21] = second compound 0.316 µM, first compound 0.1 µM
[22] = second compound 0.316 µM, first compound 1 µM
[23] = second compound 0.316 µM, first compound 3.16 µM
[24] = second compound 0.316 µM, first compound 10 µM
[25] = second compound 1 µM, first compound 0.1 µM
[26] = second compound 1 µM, first compound 1 µM
[27] = second compound 1 µM, first compound 3.16 µM
[28] = second compound 1 µM, first compound 10 µM
[29] = second compound 3.16 µM, first compound 0.1 µM
[30] = second compound 3.16 µM, first compound 1 µM
[31] = second compound 3.16 µM, first compound 3.16 µM
[32] = second compound 3.16 µM, first compound 10 µM
[33] = second compound 10 µM, first compound 0.1 µM
[34] = second compound 10 µM, first compound 1 µM
[35] = second compound 10 µM, first compound 3.16 µM
[36] = second compound 10 µM, first compound 10 µM
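Note: spheroids exposed to compounds for seven days before readout.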

## Cc1[nH]c2ccccc2c1CCNCc1ccc(/C=C/C(=O)NO)cc1 + Cc1cnc(CNC(=O)c2c(=O)c3ccc(N4CCCN(C)CC4)nc3n3c2sc2ccccc23)cn1
Second compound 0.0316 µM
  IC50: > 0.316 µM
Second compound 0.1 µM
  IC50: > 0.316 µM
Second compound 0.316 µM
  IC50: > 0.316 µM
Second compound 1 µM
  IC50: > 0.316 µM
Second compound 3.16 µM
  IC50: < 0.000999 µM
Second compound 10 µM
  IC50: < 0.000999 µM
Second compound 0.0316 µM, first compound 0.000999 µM
  viability, T/C: 108%
Second compound 0.0316 µM, first compound 0.00316 µM
  viability, T/C: 89.4%
Second compound 0.0316 µM, first compound 0.00999 µM
  viability, T/C: 105%
[1]
  viability, T/C: 87.8%
Second compound 0.0316 µM, first compound 0.0999 µM
  viability, T/C: 86.9%
[2]
  viability, T/C: 80.5%
Second compound 0.1 µM, first compound 0.000999 µM
  viability, T/C: 90.7%
Second compound 0.1 µM, first compound 0.00316 µM
  viability, T/C: 84%
Second compound 0.1 µM, first compound 0.00999 µM
  viability, T/C: 84.3%
[3]
  viability, T/C: 80.5%
Second compound 0.1 µM, first compound 0.0999 µM
  viability, T/C: 94.8%
[4]
  viability, T/C: 65.5%
Second compound 0.316 µM, first compound 0.000999 µM
  viability, T/C: 74.9%
Second compound 0.316 µM, first compound 0.00316 µM
  viability, T/C: 80.8%
Second compound 0.316 µM, first compound 0.00999 µM
  viability, T/C: 85.5%
[5]
  viability, T/C: 85%
Second compound 0.316 µM, first compound 0.0999 µM
  viability, T/C: 90.4%
[6]
  viability, T/C: 58.1%
Second compound 1 µM, first compound 0.000999 µM
  viability, T/C: 50.9%
Second compound 1 µM, first compound 0.00316 µM
  viability, T/C: 73.3%
Second compound 1 µM, first compound 0.00999 µM
  viability, T/C: 69.2%
[7]
  viability, T/C: 66.6%
Second compound 1 µM, first compound 0.0999 µM
  viability, T/C: 67.5%
[8]
  viability, T/C: 39%
Second compound 3.16 µM, first compound 0.000999 µM
  viability, T/C: 41.6%
Second compound 3.16 µM, first compound 0.00316 µM
  viability, T/C: 51.4%
Second compound 3.16 µM, first compound 0.00999 µM
  viability, T/C: 52.9%
[9]
  viability, T/C: 46.1%
Second compound 3.16 µM, first compound 0.0999 µM
  viability, T/C: 43.1%
[10]
  viability, T/C: 9.89%
Second compound 10 µM, first compound 0.000999 µM
  viability, T/C: 21.6%
Second compound 10 µM, first compound 0.00316 µM
  viability, T/C: 31.5%
Second compound 10 µM, first compound 0.00999 µM
  viability, T/C: 32%
[11]
  viability, T/C: 31.1%
Second compound 10 µM, first compound 0.0999 µM
  viability, T/C: 14.5%
[12]
  viability, T/C: 0.3%

## CCCS(=O)(=O)Nc1ccc(F)c(C(=O)c2c[nH]c3ncc(-c4ccc(Cl)cc4)cc23)c1F + Cc1cnc(CNC(=O)c2c(=O)c3ccc(N4CCCN(C)CC4)nc3n3c2sc2ccccc23)cn1
Second compound 0.0316 µM
  IC50: 8.41 µM
Second compound 0.1 µM
  IC50: > 10 µM
Second compound 0.316 µM
  IC50: > 10 µM
Second compound 1 µM
  IC50: 6.32 µM
Second compound 3.16 µM
  IC50: 3.27 µM
Second compound 10 µM
  IC50: < 0.0316 µM
[1]
  viability, T/C: 101%
[13]
  viability, T/C: 93.9%
[2]
  viability, T/C: 107%
[14]
  viability, T/C: 96%
[15]
  viability, T/C: 110%
[16]
  viability, T/C: 40.9%
[3]
  viability, T/C: 105%
[17]
  viability, T/C: 70.4%
[4]
  viability, T/C: 78.9%
[18]
  viability, T/C: 82.4%
[19]
  viability, T/C: 98.1%
[20]
  viability, T/C: 52.8%
[5]
  viability, T/C: 85%
[21]
  viability, T/C: 64.3%
[6]
  viability, T/C: 82.9%
[22]
  viability, T/C: 91.3%
[23]
  viability, T/C: 101%
[24]
  viability, T/C: 55.1%
[7]
  viability, T/C: 64.3%
[25]
  viability, T/C: 76.5%
[8]
  viability, T/C: 74.1%
[26]
  viability, T/C: 67.3%
[27]
  viability, T/C: 96.4%
[28]
  viability, T/C: 33%
[9]
  viability, T/C: 43.9%
[29]
  viability, T/C: 42.7%
[10]
  viability, T/C: 55.2%
[30]
  viability, T/C: 63.4%
[31]
  viability, T/C: 52.7%
[32]
  viability, T/C: 0.43%
[11]
  viability, T/C: 32.7%
[33]
  viability, T/C: 34.5%
[12]
  viability, T/C: 38.7%
[34]
  viability, T/C: 34.6%
[35]
  viability, T/C: 22.8%
[36]
  viability, T/C: 0.26%

## C=CCn1c(=O)c2cnc(Nc3ccc(N4CCN(C)CC4)cc3)nc2n1-c1cccc(C(C)(C)O)n1 + Cc1[nH]c2ccc(F)cc2c1-c1nc2c3cccnc3c3ncccc3c2[nH]1
Second compound 0.0316 µM
  IC50: 9.44 µM
Second compound 0.1 µM
  IC50: 6.67 µM
Second compound 0.316 µM
  IC50: 6.48 µM
Second compound 1 µM
  IC50: 5.42 µM
Second compound 3.16 µM
  IC50: 4.56 µM
Second compound 10 µM
  IC50: 4.4 µM
[1]
  viability, T/C: 102%
[13]
  viability, T/C: 104%
[2]
  viability, T/C: 94.3%
[14]
  viability, T/C: 108%
[15]
  viability, T/C: 105%
[16]
  viability, T/C: 47.1%
[3]
  viability, T/C: 114%
[17]
  viability, T/C: 99.8%
[4]
  viability, T/C: 103%
[18]
  viability, T/C: 113%
[19]
  viability, T/C: 99.3%
[20]
  viability, T/C: 23%
[5]
  viability, T/C: 105%
[21]
  viability, T/C: 94.1%
[6]
  viability, T/C: 95.6%
[22]
  viability, T/C: 97.2%
[23]
  viability, T/C: 95.6%
[24]
  viability, T/C: 22.4%
[7]
  viability, T/C: 81.6%
[25]
  viability, T/C: 88.2%
[8]
  viability, T/C: 93.1%
[26]
  viability, T/C: 89.3%
[27]
  viability, T/C: 79.8%
[28]
  viability, T/C: 16%
[9]
  viability, T/C: 72%
[29]
  viability, T/C: 72%
[10]
  viability, T/C: 70.3%
[30]
  viability, T/C: 64.8%
[31]
  viability, T/C: 70.7%
[32]
  viability, T/C: 7.06%
[11]
  viability, T/C: 75.4%
[33]
  viability, T/C: 76.8%
[12]
  viability, T/C: 71.5%
[34]
  viability, T/C: 71.5%
[35]
  viability, T/C: 67.8%
[36]
  viability, T/C: 6.01%

## COc1ccc([C@@H](O)c2cc(-c3ncnc4cc(N5CCOCC5)ccc34)c(F)cc2Cl)nn1 + CN(C)c1ccc(Nc2c3ccc(NC(=O)CCN4CCCC4)cc3nc3cc(NC(=O)CCN4CCCC4)ccc23)cc1
Second compound 0.0316 µM
  IC50: 8.39 µM
Second compound 0.1 µM
  IC50: > 10 µM
Second compound 0.316 µM
  IC50: 9.75 µM
Second compound 1 µM
  IC50: 8.02 µM
Second compound 3.16 µM
  IC50: 8.26 µM
Second compound 10 µM
  IC50: 6.96 µM
[1]
  viability, T/C: 97.4%
[13]
  viability, T/C: 98.5%
[2]
  viability, T/C: 94.6%
[14]
  viability, T/C: 87.2%
[15]
  viability, T/C: 67.2%
[16]
  viability, T/C: 46.9%
[3]
  viability, T/C: 99.3%
[17]
  viability, T/C: 101%
[4]
  viability, T/C: 89.4%
[18]
  viability, T/C: 81.2%
[19]
  viability, T/C: 72.9%
[20]
  viability, T/C: 50%
[5]
  viability, T/C: 97.2%
[21]
  viability, T/C: 96.7%
[6]
  viability, T/C: 89.3%
[22]
  viability, T/C: 82.3%
[23]
  viability, T/C: 68.5%
[24]
  viability, T/C: 49.3%
[7]
  viability, T/C: 93.6%
[25]
  viability, T/C: 103%
[8]
  viability, T/C: 100%
[26]
  viability, T/C: 79%
[27]
  viability, T/C: 74.3%
[28]
  viability, T/C: 44.4%
[9]
  viability, T/C: 102%
[29]
  viability, T/C: 96.4%
[10]
  viability, T/C: 98.7%
[30]
  viability, T/C: 83.3%
[31]
  viability, T/C: 68.4%
[32]
  viability, T/C: 46.3%
[11]
  viability, T/C: 88.8%
[33]
  viability, T/C: 77.3%
[12]
  viability, T/C: 90.5%
[34]
  viability, T/C: 72.8%
[35]
  viability, T/C: 63.8%
[36]
  viability, T/C: 44%

Reference: PubChem BioAssay AID2060492 (Molecular Pharmacology Branch, DTP, NCI, 2025)
